Values after ≈ are worked out from the molar mass of the structure shown. Where two headings read alike, the source gives them in different places.

For one series, the system named is Candida albicans. Particulars: cited from earlier work.
The subject of series [1] is Gardnerella vaginalis. Briefly: MIC against Gardnerella vaginalis (ATCC 14018 and 11 clinical isolates), standard two-fold dilution. Type of series: cell-based. The conditions noted are these: for NUMBER OF STRAINS WITH MIC OF 8: MIC 8 mcg/ml; for NUMBER OF STRAINS WITH MIC OF 16: MIC 16 mcg/ml; for NUMBER OF STRAINS WITH MIC OF 32: MIC 32 mcg/ml; for NUMBER OF STRAINS WITH MIC OF 64: MIC 64 mcg/ml; for NUMBER OF STRAINS WITH MIC OF 4: MIC 4 mcg/ml.
Description: The strains were grown on Casman medium (Difco) plus 5% (v/v) whole rabbit blood and 0.15 (v/v) lysed rabbit blood. Inoculum size: approximately 10^4 colony forming units per spot. Incubation in an anaerobic hood: 48 hours at 37° C.

The next series concerns Trichomonas vaginalis. Particulars: cited from earlier work.
In series [2] the test system is Gardnerella vaginalis. Particulars: cited from earlier work.
The next series has as its system yeasts. The conditions noted are these: cited from earlier work.
Another series deals with Gram-negative bacteria. The conditions noted are these: in vitro; cited from earlier work.
The subject of series [3] is Bacteroides fragilis ATCC 23745. Kind of series: MIC against Bacteroides fragilis, two-fold dilution method. Particulars: ATCC23745, anaerobic, 48 hours at 37° C., Wilkins-Chalgren broth, approximately 10^4 CFU/ml. Type of series: cell-based. How it is done:
A further experiment representative of the activity of purpuromycin against other anaerobic bacteria which are usually associated with infectious vaginitis utilized Bacteroides fragilis ATCC […] as the test microorganism. The experiment was carried out by the two-fold dilution method in microliter plates using Wilkins-Chalgren broth (Difco).
Inoculum size: approximately 10^4 colony forming units/ml. Incubation in an anerobic hood: 48 hours at 37° C. Purpuromycin was dissolved in DMSO and was added to the culture medium as above.

A further series is described as follows: Solubility. Type of series: physicochemical.
Series [4] has as its system Candida albicans strain SKF 2270. Briefly: Topical treatment of yeast vaginal infection in ovariectomized rats. In kind it is in vivo, rat. Particulars: topical intravaginal; for Mean log10 CFU/smear sample ± SD: twice daily for three days, untreated 3.43 ± 0.55, vehicle 3.74 ± 0.60. On the procedure: The effectiveness of purpuromycin in the topical treatment of yeast vaginal infection was also tested in ovariectomized rats (Charles River) treated subcutaneously with 4 mg of estradiol benzoate approximately two weeks after ovariectomy. Five days later they were inoculated intravaginally with approximately 5×10^6 colony forming units (CFU) of Candida albicans strain SKF 2270 in 25 microliters of Nutrient Broth (no.2, Oxoid) containing 15% (vol/vol) of glycerol. Topical intravaginal therapy was twice daily for three days, starting one day after infection, with 100 microliters of a purpuromycin suspension in a mixture of 10:90 DMSO-polyethylene glycol 400, corresponding to 2 or 5 mg/rat/treatment. The day after the last treatment, vaginal smear samples (calibrated 10 microliter loops) were diluted and plated for viable organism counts on Sabouraud agar (Difco). Each group contained 10 animals.

For a further series, the system named is Gram-positive bacteria. The conditions noted are these: in vitro; cited from earlier work.
For series [5], the system named is fungi, including filamentous fungi (e.g., Trichophyton mentagrophytes) and yeasts e.g., Candida albicans. The conditions noted are these: in vitro; cited from earlier work.
The mark [6] stands for this setting: 12 strains tested, anaerobic, 48 hours at 37° C.
Where [7] appears, read: MIC >128 mcg/ml, 12 strains tested, anaerobic, 48 hours at 37° C.

As for `C[C@@H]1[C@H](O)[C@@H](C)/C=C/C=C/C=C/C=C/C=C/C=C/C=C/[C@H](O[C@@H]2O[C@H](C)[C@@H](O)[C@H](N)[C@@H]2O)C[C@@H]2O[C@](O)(C[C@@H](O)C[C@@H](O)[C@H](O)CC[C@@H](O)C[C@@H](O)CC(=O)O[C@H]1C)C[C@H](O)[C@H]2C(=O)O` [Amphotericin B], the “effectiveness against Candida albicans infections” value (“effectiveness” for short) in the series with Candida albicans was “effective”.
For `Clc1ccccc1C(c1ccccc1)(c1ccccc1)n1ccnc1` [Clotrimazole], the “effectiveness” value in the series on Candida albicans is recorded as “effective”. Besides, in the series on Gardnerella vaginalis [1] (setting [6]), the “NUMBER OF STRAINS WITH MIC OF 8” value was found to be 2 strains, the “NUMBER OF STRAINS WITH MIC OF 16” value is 1 strains, the “NUMBER OF STRAINS WITH MIC OF 32” value is given as 2 strains and the “NUMBER OF STRAINS WITH MIC OF 64” value was 5 strains. Also, the “NUMBER OF STRAINS WITH MIC OF >128” value with Gardnerella vaginalis [1] (setting [7]) is reported as 2 strains.
As for `CC(=O)N1CCN(c2ccc(OCC3COC(Cn4ccnc4)(c4ccc(Cl)cc4Cl)O3)cc2)CC1` (centres unmarked) [Ketoconazole], the “effectiveness” value in the series with Candida albicans was “effective”.
As to `Cc1ncc([N+](=O)[O-])n1CCO` [Metronidazole], the “activity against Trichomonas vaginalis” value in the series with Trichomonas vaginalis is given as “active”. For the same compound, in the series with Gardnerella vaginalis [1] (setting [6]), the “NUMBER OF STRAINS WITH MIC OF 4” value was 1 strains, the “NUMBER OF STRAINS WITH MIC OF 8” value is 3 strains, the “NUMBER OF STRAINS WITH MIC OF 16” value is given as 4 strains and the “NUMBER OF STRAINS WITH MIC OF 64” value is 1 strains. Further, the “NUMBER OF STRAINS WITH MIC OF 128” value in the series on Gardnerella vaginalis [1] (MIC 128 mcg/ml, 12 strains tested, anaerobic, 48 hours at 37° C.) turned out to be 3 strains. Further, in the series with Gardnerella vaginalis [2], the “activity against Gardnerella vaginalis” value is “active”. Besides, the activity against yeasts result in the series with yeasts is “not active”.
Take `Clc1ccc(COC(Cn2ccnc2)c2ccc(Cl)cc2Cl)c(Cl)c1` (centres unmarked) [Miconazole]: in the series on Candida albicans, the “effectiveness” value was “effective”. Also, the MIC in the series on Gardnerella vaginalis [1] (Gardnerella vaginalis, strains resistant to the agent, read-out: MIC (on resistant strains)) came out at 128 mg/L (≈ 308 µM). In addition, in the series on Gardnerella vaginalis [1] (setting [6]), the “NUMBER OF STRAINS WITH MIC OF 4” value turned out to be 1 strains, the “NUMBER OF STRAINS WITH MIC OF 8” value is given as 7 strains and the “NUMBER OF STRAINS WITH MIC OF 32” value is reported as 2 strains. In addition, the “NUMBER OF STRAINS WITH MIC OF >128” value in the series with Gardnerella vaginalis [1] (setting [7]) came to 2 strains.
For the compound `C[C@@H]1[C@H](O)[C@@H](C)/C=C/C=C/CC/C=C/C=C/C=C/C=C/C(O[C@H]2O[C@H](C)[C@@H](O)[C@H](N)[C@@H]2O)CC2O[C@](O)(CC(O)C(O)CCC(O)CC(O)CC(O)CC(=O)O[C@H]1C)CC(O)C2C(=O)O` (some centres unmarked) [Nystatin], the “effectiveness” value in the series on Candida albicans is reported as “effective”. In addition, the “NUMBER OF STRAINS WITH MIC OF >128” value with Gardnerella vaginalis [1] came out at 12 strains.
For `COC(=O)c1cc2cc3c(c(O)c2c(=O)o1)OC1(Cc2c(O)c4c(c(O)c2O1)C(=O)C(OC)=CC4=O)CC3O` (centres unmarked) [Purpuromycin], in the series with Gram-negative bacteria, the “activity against Gram-negative bacteria” value was “active”. For the same compound, the MIC in series [3] turned out to be 0.25 mg/L (≈ 0.464 µM); with Gardnerella vaginalis [1] (48 h, all 12 Gardnerella vaginalis strains, read-out: concentration that inhibits the growth of all tested strains), 8 mg/L (≈ 14.9 µM). Besides, in “Solubility” (lower alkanols), the “solubility in lower alkanols” value was “practically unsoluble”. For the same compound, the solubility in water result in “Solubility” (water) was “practically unsoluble”. For the same compound, in the series with Gardnerella vaginalis [1] (setting [6]), the “NUMBER OF STRAINS WITH MIC OF 8” value was determined as 12 strains. The “activity on strains resistant to metronidazole, nystatin and miconozole” value with Gardnerella vaginalis [1] (resistant strains) is listed as “active”. The “Mean log10 CFU/smear sample ± SD” value in [4] (2 mg/rat/treatment) worked out at 2.00 ± 0.75 log10 CFU/smear sample; in series [4] (5 mg/rat/treatment, *P <0.01 vs group 1 controls) it was 2.28 ± 0.78 log10 CFU/smear sample. In series [4] (2 or 5 mg/rat/treatment), the “numbers of viable yeast cells/sample” value is given as “significantly reduced”. Moreover, the “activity against Gram-positive bacteria” value with Gram-positive bacteria is “active”. In addition, the activity against fungi result in series [5] is listed as “active”.
In the case of `CC1(C)S[C@@H]2[C@H](NC(=O)[C@H](N)c3ccccc3)C(=O)N2[C@H]1C(=O)O` [ampicillin], in the series with Gardnerella vaginalis [2], the “activity against Gardnerella vaginalis” value is listed as “active”.
With `CC1=C(C(=O)O)N2C(=O)[C@@H](NC(=O)[C@H](N)c3ccccc3)[C@H]2SC1` [cefalexin], the “activity against Gardnerella vaginalis” value with Gardnerella vaginalis [2] was “active”.
For `CO[C@@]1(NC(=O)Cc2cccs2)C(=O)N2C(C(=O)O)=C(COC(N)=O)CS[C@@H]21` [cefoxitin], the “activity against Gardnerella vaginalis” value in the series on Gardnerella vaginalis [2] is reported as “active”.
Turning to `O=C(Cc1cccs1)N[C@@H]1C(=O)N2C(C(=O)[O-])=C(C[n+]3ccccc3)CS[C@H]12` [cephaloridine], the “activity against Gardnerella vaginalis” value in the series on Gardnerella vaginalis [2] is listed as “active”.
Take `O=C(N[C@H](CO)[C@H](O)c1ccc([N+](=O)[O-])cc1)C(Cl)Cl` [chloramphenicol]: the “activity against Gardnerella vaginalis” value in the series with Gardnerella vaginalis [2] is “active”.
Consider `CCC[C@@H]1C[C@@H](C(=O)N[C@@H]([C@H]2O[C@H](SC)[C@H](O)[C@@H](O)[C@H]2O)[C@H](C)Cl)N(C)C1` [clindamycin], for which the “activity against Gardnerella vaginalis” value with Gardnerella vaginalis [2] is recorded as “active”.
`Clc1ccc(COC(Cn2ccnc2)c2ccc(Cl)cc2Cl)cc1` (centres unmarked) [econozole]: the “effectiveness” value in the series on Candida albicans was “effective”.
As for `CC[C@H]1OC(=O)[C@H](C)[C@@H](O[C@H]2C[C@@](C)(OC)[C@@H](O)[C@H](C)O2)[C@H](C)[C@@H](O[C@@H]2O[C@H](C)C[C@H](N(C)C)[C@H]2O)[C@](C)(O)C[C@@H](C)C(=O)[C@H](C)[C@@H](O)[C@]1(C)O` [erythromycin], the “activity against Gardnerella vaginalis” value in the series with Gardnerella vaginalis [2] is “active”.
In the case of `OC(Cn1cncn1)(Cn1cncn1)c1ccc(F)cc1F` [fluconazole], in the series on Candida albicans, the “effectiveness” value is listed as “effective”.
Turning to `CN(C)c1ccc(C(=C2C=CC(=[N+](C)C)C=C2)c2ccc(N(C)C)cc2)cc1` [gentian violet], in the series on Candida albicans, the “effectiveness” value is recorded as “effective”.
Turning to `CC1(C)S[C@@H]2[C@H](NC(=O)Cc3ccccc3)C(=O)N2[C@H]1C(=O)O` [penicillin G], the “activity against Gardnerella vaginalis” value with Gardnerella vaginalis [2] is given as “active”.
For the compound `CN[C@@H]1[C@H](O)[C@H](NC)[C@H]2O[C@@]3(O)C(=O)C[C@@H](C)O[C@H]3O[C@@H]2[C@H]1O` [spectinomycin], in the series with Gardnerella vaginalis [2], the “activity against Gardnerella vaginalis” value is on record as “active”.
Consider `Cc1cc(NS(=O)(=O)c2ccc(N)cc2)no1` [sulfamethoxazole], for which, in the series on Gardnerella vaginalis [2], the “activity against Gardnerella vaginalis” value was “active”.
On to `CN(C)C1C(=O)C(C(N)=O)=C(O)C2(O)C(=O)C3=C(O)c4c(O)cccc4C(C)(O)C3CC12` (centres unmarked) [tetracycline], for which, in the series with Gardnerella vaginalis [2], the “activity against Gardnerella vaginalis” value was “active”.
As for `CCS(=O)(=O)CCn1c([N+](=O)[O-])cnc1C` [tinidazole], in the series with Trichomonas vaginalis, the “activity against Trichomonas vaginalis” value is given as “active”.
As to candicidin, in the series on Candida albicans, the “effectiveness” value is “effective”.
Turning to gentamicin, in the series on Gardnerella vaginalis [2], the “activity against Gardnerella vaginalis” value is reported as “active”.

Source of the values: patent US5141953A, “Purpuromycin for the treatment of vaginal infections and pharmaceutical dosage forms for said use” (Gruppo Lepetit S.p.A., priority 1989, dated 1992).
